For data set [1], the system named is Plasmodium falciparum. The data set can be described thus: Antimalarial activity against Plasmodium falciparum D6. Type of data set: functional, organism-based.
For the next data set, the system named is Plasmodium. The data set can be described thus: Antimalarial activity against Plasmodium. The data set is classed as functional, organism-based.
Data set [2] deals with Plasmodium falciparum. The data set can be described thus: Antimalarial activity against Plasmodium falciparum W2. Type of data set: functional, organism-based.
The subject of another data set is Leishmania donovani. The data set can be described thus: Antileishmanial activity against Leishmania donovani MHOM-ET-67/L82. The data set is classed as functional, organism-based.
Data set [3] in a line: Cytotoxicity against rat L6 cells assessed as reduction in cell viability. The data set is classed as toxicity, cell-based.
The subject of data set [4] is Plasmodium falciparum. As to the kind of experiment: Antimalarial activity against Plasmodium falciparum K1. The data set is classed as functional, organism-based.
Data set [5] can be described thus: Selectivity index, ratio of IC50 for rat L6 cells to IC50 for Plasmodium falciparum K1. The data set is classed as toxicity. The following applies: L6 cells versus Plasmodium falciparum K1, read-out: Ratio IC50.
The test system of the next data set is Trypanosoma cruzi. As to the kind of experiment: Antitrypanosomal activity against Trypanosoma cruzi Tulahuen C2C4. The data set is classed as functional, organism-based.
Another data set concerns Trypanosoma brucei. The data set can be described thus: Antitrypanosomal activity against Trypanosoma brucei rhodesiense STIB 900. The data set is classed as functional, organism-based.
In data set [6] the test system is Plasmodium falciparum. The data set can be described thus: Antiplasmodial activity against chloroquine sensitive Plasmodium falciparum K1. The data set is classed as functional, organism-based.
Data set [7] is described as follows: Cytotoxicity against human MRC5 cells. The data set is classed as toxicity, cell-based.
The test system of data set [8] is Plasmodium falciparum. As to the kind of experiment: Antiplasmodial activity against GHA chloroquine sensitive Plasmodium falciparum. The data set is classed as functional, organism-based.
Data set [9] deals with Plasmodium falciparum. As to the kind of experiment: Antiplasmodial activity against chloroquine sensitive Plasmodium falciparum FCCI-HN assessed as decrease in parasitemia level incubated for 24 hrs by Giemsa staining method. The data set is classed as functional, organism-based.
Data set [10] has as its system Plasmodium falciparum. As to the kind of experiment: Antimalarial activity against Plasmodium falciparum NF54 assessed as delayed-death phenotype incubated 72 to 96 hrs by SYBR green staining method. Type of data set: functional, organism-based.
Data set [11] relates to Plasmodium falciparum. As to the kind of experiment: Antimalarial activity against Plasmodium falciparum. Type of data set: functional, organism-based.
Data set [12] concerns Plasmodium falciparum. As to the kind of experiment: Antimalarial activity against chloroquine sensitive Plasmodium falciparum FcM29-Cameroon in human RBC. The data set is classed as functional, organism-based. The conditions noted are these: Erythrocyte.
For data set [13], the system named is Plasmodium falciparum. As to the kind of experiment: Antimalarial activity against Plasmodium falciparum incubated for 72 hrs by SYBR green I-based assay. The data set is classed as functional, organism-based.

Each structure is given as a SMILES string. Converted amounts (≈) assume the structure as drawn. “And” between values parts separate entries of the source, which are not always exact repeats. Equal values may be shown once.

The results in this text go back to ChEMBL document CHEMBL5096184, “Structure activity relationship in β-carboline derived anti-malarial agents” (Eur J Med Chem, 2021).

On to `Oc1cccc2c1[nH]c1c(C3=C[C@@]4(O)CC/C=C\CCCCN5CC[C@@H]3[C@]3(C[C@@H]6/C=C\CCCCN6[C@H]34)C5)nccc12`, for which the IC50 in the data set with Plasmodium falciparum [1] was determined as 6 ng/mL (≈ 0.0106 µM); with Plasmodium, 6.1 ng/mL (≈ 0.0108 µM); in the data set on Plasmodium falciparum [2], 8 ng/mL (≈ 0.0142 µM).

Compound `O[C@]12C=C[C@@H]3CCN(CCCCCCCC1)C[C@@]31C[C@@H]3CCCCCCN3[C@H]12` returned a 50% inhibitory concentration (IC50) with Plasmodium falciparum [1] of 82 ng/mL (≈ 0.212 µM).

Regarding `Brc1ccc2[nH]c3c[n+](Cc4cccc5ccccc45)ccc3c2c1`, the half-inhibitory concentration (IC50) in the data set with Leishmania donovani was determined as 17.7 µM; in data set [3] it was 5.1 µM; with Plasmodium falciparum [4], 0.481 µM; in the data set on Trypanosoma cruzi it was 7.5 µM; in the data set on Trypanosoma brucei, 4.1 µM. In addition, the selectivity ratio in data set [5] was determined as 11.

As to `CCCc1cccc(-[n+]2ccc3c(c2)[nH]c2ccc(Br)cc23)c1`, the IC50 with Leishmania donovani was found to be 20.4 µM; in data set [3], 27.5 µM; with Plasmodium falciparum [4] it was 0.459 µM; in the data set on Trypanosoma cruzi, 12.6 µM; with Trypanosoma brucei, 4.5 µM. Moreover, in data set [5], the selectivity ratio was determined as 60.

Compound `CC(=O)OC1=CO[C@@H](O[C@@H]2O[C@H](CO)[C@@H](O)[C@H](O)[C@H]2O)[C@H]2[C@@H]1C[C@@]13O[C@@H]2CN1CCC1c2ccccc2NC13` (some centres undefined) returned an IC50 in the data set with Plasmodium falciparum [6] of 6.77 µM.

As to `CC(C)(C)OC(=O)CC[C@@H]1NC(=O)[C@H]2Cc3c([nH]c4ccccc34)C(c3ccc4c(c3)OCO4)N2C1=O` (some centres undefined), the IC50 was more than 64 µM in data set [7] and 60 µM in the data set with Plasmodium falciparum [8].

`C/C=C(/CO[C@@H]1O[C@H](CO)[C@@H](O)[C@H](O)[C@H]1O)c1cc2n(c(=O)c1CO)CCc1c-2[nH]c2ccccc12`: in the data set with Plasmodium falciparum [9], the half-inhibitory concentration (IC50) is 9.7 µM.

For the compound `O=C1N[C@@H](COCc2ccccc2)C(=O)N2C(c3ccc4c(c3)OCO4)c3[nH]c4ccccc4c3C[C@H]12` (some centres undefined), the half-maximal inhibitory concentration (IC50) (in [7]; in the data set with Plasmodium falciparum [8]) was more than 64 µM in each case.

The compound `O=c1c(O[C@@H]2OC[C@](O)(CO[C@@H]3O[C@H](CO)[C@@H](O)[C@H](O)[C@H]3O)[C@H](O)[C@H]2O)cc2nccc3c4ccccc4n1c23` showed a concentration for half-maximal inhibition (IC50) with Plasmodium falciparum [6] of 25 µM.

As for `Brc1cccc2c1[nH]c1c[n+](Cc3cccc4ccccc34)ccc12`, the IC50 in the data set with Leishmania donovani stood at 46.4 µM; in data set [3] it was 3.7 µM; in the data set with Plasmodium falciparum [4] it was 0.502 µM; in the data set on Trypanosoma cruzi, 7.9 µM; in the data set on Trypanosoma brucei, 4.4 µM. The selectivity ratio in [5] worked out at 7.

For `NCCCC[C@H]1NC(=O)[C@H]2Cc3c([nH]c4ccccc34)C(c3ccc4c(c3)OCO4)N2C1=O` (some centres undefined), the 50% inhibitory concentration (IC50) in [7] is more than 64 µM; in the data set on Plasmodium falciparum [8], 4 µM.

As to `C/C=C1/COC(=O)c2c1cc1n(c2=O)CCc2c-1[nH]c1c(O[C@@H]3O[C@H](CO)[C@@H](O)[C@H](O)[C@H]3O)cccc21`, in the data set with Plasmodium falciparum [9], the IC50 was determined as 42.1 µM.

Regarding `O=C1N[C@@H](Cc2c[nH]c3ccccc23)C(=O)N2C(c3ccc4c(c3)OCO4)c3[nH]c4ccccc4c3C[C@H]12` (some centres undefined), the figures for the IC50 (in data set [7]; in the data set on Plasmodium falciparum [8]) were 35 µM and 25 µM, respectively.

As for `O=C(O)C1Cc2c([nH]c3ccccc23)C(c2ccc(Cl)cc2Cl)N1` (centres undefined), the IC50 with Plasmodium falciparum [10] is 210 µM.

Consider `C[n+]1ccc2c(c1)[nH]c1ccc(Br)cc12`, for which, in the data set on Leishmania donovani, the half-maximal inhibitory concentration (IC50) was more than 223 µM.

Compound `CC1(C)Cc2c([nH]c3ccccc23)C2(N1)C(=O)Nc1ccc(Cl)cc12` (racemic) showed a half-maximal inhibitory concentration (IC50) in the data set on Plasmodium falciparum [11] of 0.0027 µM.

On to `COC(=O)C1=CO[C@@H](C)[C@@H]2CN3CCc4c([nH]c5ccc(OC)cc45)[C@@H]3C[C@H]12` [ARICINE], for which, in the data set with Plasmodium falciparum [12], the IC50 was 0.3 µg/mL and 690 nM.

As for `COC(=O)[C@@H]1[C@H]2C[C@H]3c4[nH]c5ccccc5c4CCN3C[C@@H]2CC[C@@H]1O` [YOHIMBINE], the half-maximal effective concentration (EC50) in the data set on Plasmodium falciparum [13] was more than 50 µM.

A word on the IC50: it is the concentration at which inhibition is half-maximal. For orientation: EC50 means the concentration that produces a half-maximal response. Higher therefore signals a need for much substance.
